In PMC12808100, “The non-catalytic DNA polymerase ε subunit is an NPF motif recognition protein” (Nature Communications, 2025):
pKd: −log10 of the molar value. Residues, ends and D or L forms follow the SMILES beside them.

Columns and labels:
TMA7 = TMA7 (Homo sapiens, UniProt Q9Y2S6); assay: nHU-MS peptide bait, prey TMA7
GNB4 = GNB4 (Homo sapiens, UniProt Q9HAV0); assay: nHU-MS peptide bait, prey GNB4
GYPC = molecular target: T1, GYPC (Homo sapiens, UniProt P04921); assay: nHU-MS peptide bait, prey GYPC
T1 sequence (P04921 1-128): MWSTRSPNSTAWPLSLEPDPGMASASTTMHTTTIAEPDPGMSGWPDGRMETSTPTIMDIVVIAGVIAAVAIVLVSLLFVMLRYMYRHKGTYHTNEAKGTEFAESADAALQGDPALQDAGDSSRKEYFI

UBE2N = molecular target: T2, UBE2N (Homo sapiens, UniProt P61088); assay: nHU-MS peptide bait, prey UBE2N
T2 sequence (P61088 1-152): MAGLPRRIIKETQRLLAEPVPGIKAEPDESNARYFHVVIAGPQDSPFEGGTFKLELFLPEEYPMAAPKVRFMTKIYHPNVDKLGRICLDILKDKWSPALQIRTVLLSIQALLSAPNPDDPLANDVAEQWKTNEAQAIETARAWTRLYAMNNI

EHD4 = molecular target: T3, EHD4 (Homo sapiens, UniProt Q9H223); assay: nHU-MS peptide bait, prey EHD4
T3 sequence (Q9H223 1-541): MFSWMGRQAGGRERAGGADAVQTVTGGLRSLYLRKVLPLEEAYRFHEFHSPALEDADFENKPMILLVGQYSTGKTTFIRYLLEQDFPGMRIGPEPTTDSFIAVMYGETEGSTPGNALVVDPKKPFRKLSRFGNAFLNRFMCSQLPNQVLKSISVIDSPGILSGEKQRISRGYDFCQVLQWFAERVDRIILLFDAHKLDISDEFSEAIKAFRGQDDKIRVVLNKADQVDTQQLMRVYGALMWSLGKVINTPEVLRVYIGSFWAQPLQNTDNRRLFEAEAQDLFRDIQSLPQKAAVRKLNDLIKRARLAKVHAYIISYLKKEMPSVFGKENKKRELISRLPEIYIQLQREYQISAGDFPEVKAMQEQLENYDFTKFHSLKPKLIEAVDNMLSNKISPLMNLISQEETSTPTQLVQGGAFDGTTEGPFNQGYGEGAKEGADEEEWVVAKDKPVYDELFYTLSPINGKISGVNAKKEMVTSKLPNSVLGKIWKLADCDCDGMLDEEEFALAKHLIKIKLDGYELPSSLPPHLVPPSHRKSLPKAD

TXNRD3 = molecular target: T4, TXNRD3 (Homo sapiens, UniProt Q86VQ6); assay: nHU-MS peptide bait, prey TXNRD3
T4 sequence (Q86VQ6 1-643): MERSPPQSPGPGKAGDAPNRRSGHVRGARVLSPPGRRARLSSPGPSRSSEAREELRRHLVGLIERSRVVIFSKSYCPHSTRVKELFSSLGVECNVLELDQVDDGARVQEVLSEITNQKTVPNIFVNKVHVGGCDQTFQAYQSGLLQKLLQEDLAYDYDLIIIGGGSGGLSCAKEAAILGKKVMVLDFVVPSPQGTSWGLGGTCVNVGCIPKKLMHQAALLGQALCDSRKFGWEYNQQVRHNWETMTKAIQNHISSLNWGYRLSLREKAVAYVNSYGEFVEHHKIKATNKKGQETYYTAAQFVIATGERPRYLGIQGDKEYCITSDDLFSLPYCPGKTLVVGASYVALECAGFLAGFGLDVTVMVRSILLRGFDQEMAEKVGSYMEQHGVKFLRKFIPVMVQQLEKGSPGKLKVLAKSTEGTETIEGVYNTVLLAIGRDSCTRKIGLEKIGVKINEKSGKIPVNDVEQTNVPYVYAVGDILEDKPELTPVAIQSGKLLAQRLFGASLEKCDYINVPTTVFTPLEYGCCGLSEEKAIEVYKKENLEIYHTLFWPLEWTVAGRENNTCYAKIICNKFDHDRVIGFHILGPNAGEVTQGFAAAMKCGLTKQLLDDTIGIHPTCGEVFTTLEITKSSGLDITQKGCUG

TXNL4B = molecular target: T5, TXNL4B (Homo sapiens, UniProt Q9NX01); assay: nHU-MS peptide bait, prey TXNL4B
T5 sequence (Q9NX01 1-149): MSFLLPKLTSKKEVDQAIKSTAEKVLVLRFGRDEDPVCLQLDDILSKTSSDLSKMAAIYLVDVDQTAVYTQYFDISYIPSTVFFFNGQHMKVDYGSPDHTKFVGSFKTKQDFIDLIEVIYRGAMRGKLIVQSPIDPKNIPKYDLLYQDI

ASXL2 = molecular target: T6, ASXL2 (Homo sapiens, UniProt Q76L83); assay: nHU-MS peptide bait, prey ASXL2
T6 sequence (Q76L83 1-1435): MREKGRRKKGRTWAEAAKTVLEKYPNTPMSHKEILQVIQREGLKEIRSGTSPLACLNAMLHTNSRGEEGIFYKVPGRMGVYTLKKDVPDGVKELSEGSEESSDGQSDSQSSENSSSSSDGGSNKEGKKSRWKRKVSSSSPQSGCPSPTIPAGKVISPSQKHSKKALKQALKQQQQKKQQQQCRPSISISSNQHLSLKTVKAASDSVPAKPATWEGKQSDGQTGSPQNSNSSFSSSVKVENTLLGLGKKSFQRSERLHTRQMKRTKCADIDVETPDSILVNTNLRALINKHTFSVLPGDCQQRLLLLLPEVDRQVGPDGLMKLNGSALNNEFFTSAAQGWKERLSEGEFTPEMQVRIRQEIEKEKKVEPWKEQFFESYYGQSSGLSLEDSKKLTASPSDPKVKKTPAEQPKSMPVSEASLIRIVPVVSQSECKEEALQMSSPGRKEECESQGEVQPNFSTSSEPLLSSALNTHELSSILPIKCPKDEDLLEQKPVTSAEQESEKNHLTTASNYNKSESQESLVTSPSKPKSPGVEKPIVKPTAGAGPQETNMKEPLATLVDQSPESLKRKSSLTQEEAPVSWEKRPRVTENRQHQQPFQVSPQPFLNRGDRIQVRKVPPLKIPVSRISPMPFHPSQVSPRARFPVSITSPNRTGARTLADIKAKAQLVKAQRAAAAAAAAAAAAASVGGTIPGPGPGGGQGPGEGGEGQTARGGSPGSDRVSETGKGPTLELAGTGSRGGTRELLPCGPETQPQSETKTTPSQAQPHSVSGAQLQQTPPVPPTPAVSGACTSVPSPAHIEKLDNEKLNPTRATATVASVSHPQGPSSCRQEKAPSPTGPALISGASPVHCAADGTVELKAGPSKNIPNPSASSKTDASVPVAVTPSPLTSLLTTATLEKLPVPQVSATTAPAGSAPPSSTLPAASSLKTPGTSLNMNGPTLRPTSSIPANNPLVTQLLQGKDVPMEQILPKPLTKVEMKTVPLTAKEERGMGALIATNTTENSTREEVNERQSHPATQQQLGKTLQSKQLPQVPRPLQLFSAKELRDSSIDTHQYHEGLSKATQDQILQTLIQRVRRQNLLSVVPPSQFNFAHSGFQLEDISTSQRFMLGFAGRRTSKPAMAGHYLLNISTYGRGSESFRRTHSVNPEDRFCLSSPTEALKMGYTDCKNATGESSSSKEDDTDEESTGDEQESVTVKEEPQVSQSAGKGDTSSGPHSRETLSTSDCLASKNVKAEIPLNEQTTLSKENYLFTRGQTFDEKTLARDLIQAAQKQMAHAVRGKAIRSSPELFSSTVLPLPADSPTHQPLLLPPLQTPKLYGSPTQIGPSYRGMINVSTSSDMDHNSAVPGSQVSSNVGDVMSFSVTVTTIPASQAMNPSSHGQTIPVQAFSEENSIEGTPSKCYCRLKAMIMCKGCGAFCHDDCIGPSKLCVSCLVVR

GNB4, sequence (Q9HAV0 2-340 limits assumed): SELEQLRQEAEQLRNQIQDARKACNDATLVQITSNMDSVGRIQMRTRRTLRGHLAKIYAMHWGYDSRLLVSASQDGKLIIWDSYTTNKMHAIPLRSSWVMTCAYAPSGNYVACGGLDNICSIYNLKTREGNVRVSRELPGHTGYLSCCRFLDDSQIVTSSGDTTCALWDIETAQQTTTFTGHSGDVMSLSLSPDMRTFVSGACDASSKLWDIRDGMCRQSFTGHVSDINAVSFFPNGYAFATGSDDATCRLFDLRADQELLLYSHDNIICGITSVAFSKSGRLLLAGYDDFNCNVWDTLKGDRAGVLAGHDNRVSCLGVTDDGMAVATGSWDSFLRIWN
GNB4, sequence (P59768 2-68 partner limits assumed): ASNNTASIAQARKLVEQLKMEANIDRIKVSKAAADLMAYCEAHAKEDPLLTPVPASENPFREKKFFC
TMA7, sequence (Q9Y2S6 whole entry): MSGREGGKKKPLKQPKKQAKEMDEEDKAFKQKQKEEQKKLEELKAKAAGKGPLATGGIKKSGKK

SMILES	pKd (TMA7)	BI (TMA7; prey TMA7, MS7_Varjosalo)	pKd (GNB4)	BI (GNB4; prey GNB4, MS7_Varjosalo)	pKd (GYPC)	BI (GYPC; prey GYPC, MS4_Varjosalo)	pKd (UBE2N)	BI (UBE2N; prey UBE2N, MS4_Varjosalo)	pKd (EHD4)	BI (EHD4; prey EHD4, MS4_Varjosalo)	pKd (TXNRD3)	BI (TXNRD3; prey TXNRD3, MS7_Varjosalo)	log2FC (TXNRD3; prey TXNRD3, MS7_Varjosalo)	pKd (TXNL4B)	BI (TXNL4B; prey TXNL4B, MS7_Varjosalo)	log2FC (TXNL4B; prey TXNL4B, MS7_Varjosalo)	pKd (ASXL2)	BI (ASXL2; prey ASXL2, MS7_Varjosalo)	log2FC (ASXL2; prey ASXL2, MS7_Varjosalo)
CC(C)[C@H](NC(=O)[C@H](CCCCN)NC(=O)[C@H](Cc1ccccc1)NC(=O)[C@@H]1CCCN1C(=O)[C@H](CC(N)=O)NC(=O)[C@@H](NC(=O)[C@H](CCCNC(=N)N)NC(=O)CNC(=O)[C@H](CCC(N)=O)NC(=O)[C@H](CO)NC(=O)[C@@H](N)CO)C(C)C)C(=O)N[C@@H](CO)C(=O)N[C@@H](C)C(=O)N[C@@H](CO)C(=O)N[C@@H](CO)C(=O)N[C@@H](CCCCN)C(=O)N[C@@H](CCC(=O)O)C(=O)N1CCC[C@H]1C(=O)N[C@@H](C)C(N)=O [WDHD1 906-924] (H-SSQGRVNPFKVSASSKEPA-NH2)	4.87	0.4275	4.90	0.4407	4.73	0.35	4.68	0.3252	4.72	0.3455									
CC[C@H](C)[C@H](NC(=O)[C@H](CC(N)=O)NC(=O)[C@@H](NC(=O)[C@H](CCC(N)=O)NC(=O)[C@@H]1CCCN1C(=O)[C@@H](NC(=O)[C@H](CCC(N)=O)NC(=O)[C@H](CCCNC(=N)N)NC(=O)CCCCCNC(=O)CCCC[C@@H]1SC[C@@H]2NC(=O)N[C@@H]21)[C@@H](C)O)C(C)C)C(=O)N[C@@H](CC(N)=O)C(=O)N1CCC[C@H]1C(=O)N[C@@H](Cc1ccccc1)C(=O)N[C@H](C(=O)N1CCC[C@H]1C(=O)N[C@@H](CC(=O)O)C(=O)N[C@@H](CO)C(=O)N[C@@H](CC(C)C)C(=O)N[C@@H](CC(C)C)C(=O)N[C@@H](CC(C)C)C(=O)N[C@@H](Cc1c[nH]cn1)C(=O)N[C@@H](CO)C(N)=O)[C@@H](C)O [WEE1] (HELM PEPTIDE1{[O=C1N[C@H]2[C@H](CS[C@H]2CCCCC(=O)[*:2])N1].[O=C(CCCCCN[*:1])[*:2]].R.Q.T.P.Q.V.N.I.N.P.F.T.P.D.S.L.L.L.H.S.[am]}$$$$V2.0)											5.16	0.5933	-1.298	5.13	0.575	-1.234	5.26	0.643	-1.486
